Laboratory results reported in patent US8883841B2, “Oncogenic ras-specific cytotoxic compound and methods of use thereof” (The Board of Regents of the University of Texas System, priority 2005, dated 2014).
pIC50: −log10 of the molar value. Where two headings read alike, the source gives them in different places.

Legend:
H23 = assay: Cell viability, H23 lung cancer cells; type: cell-based, human; conditions: Homo sapiens, NCI-H23; H23, Lung; read-out: IC50 (−LogM) (converted)
Ovca429 = assay: Cell viability, Ovca429 ovary cancer cells; type: cell-based
SR = assay: NCI in-vitro testing, SR (Leukemia); type: cell-based; conditions: for GI50: Homo sapiens
HT29 = assay: NCI in-vitro testing, HT29 (Colon Cancer)
SF-268 = assay: NCI in-vitro testing, SF-268 (CNS Cancer)
SNB-75 = assay: NCI in-vitro testing, SNB-75 (CNS Cancer)
SK-MEL-2 = assay: NCI in-vitro testing, SK-MEL-2 (Melanoma)
SK-MEL-5 = assay: NCI in-vitro testing, SK-MEL-5 (Melanoma)
786-0 = assay: NCI in-vitro testing, 786-0 (Renal Cancer)
SN12C = assay: NCI in-vitro testing, SN12C (Renal Cancer)
RXF 393 = assay: NCI in-vitro testing, RXF 393 (Renal Cancer)
COLO 205 = assay: NCI in-vitro testing, COLO 205 (Colon Cancer)
OVCAR-5 = assay: NCI in-vitro testing, OVCAR-5 (Ovarian Cancer)
MDA-MB-231/ATCC = assay: NCI in-vitro testing, MDA-MB-231/ATCC (Breast Cancer)
HOP-62 = assay: NCI in-vitro testing, HOP-62 (Non-Small Cell Lung Cancer)

`OCc1cn(Cc2ccc(Cl)cc2)c2ccccc12` [Oncrasin K060, 1H-Indole-3-methanol, 1-[(4-chlorophenyl)methyl]-] gave an IC50 (H23) of 15.8 µM, a pIC50 (Ovca429) of 4.50 and a TGI (SR) of 1.26E−8 Molar. The GI50 (SR; Leukemia, NCI Mean Graphs, read-out: Log10 GI50 (converted)) was < 0.01 µM, the GI50 (SR; read-out: GI50) was < 1 µM and the “Percent Growth” value (SR; Log10 Concentration −4.0 Molar) was −71%. The “Percent Growth” value (SR; Log10 Concentration −5.0 Molar) was −18%, the “Percent Growth” value (SR; Log10 Concentration −6.0 Molar) was −71% and the “Percent Growth” value (SR; Log10 Concentration −7.0 Molar) was −26%. The “Percent Growth” value (SR; Log10 Concentration −8.0 Molar) was 43%, the TGI (HT29; HT20) was 2.01E−6 Molar and the “Percent Growth” value (HT29; HT20, Log10 Concentration −4.0 (Molar)) was −66%. The “Percent Growth” value (HT29; HT20, Log10 Concentration −5.0 (Molar)) was 29%, the “Percent Growth” value (HT29; HT20, Log10 Concentration −6.0 (Molar)) was 68% and the “Percent Growth” value (HT29; HT20, Log10 Concentration −7.0 (Molar)) was 79%. For the same compound, the “Percent Growth” value (HT29; HT20, Log10 Concentration −8.0 (Molar)) was 103%, the GI50 (HT29; Homo sapiens) was 1.83 µM and the GI50 (HT29; Homo sapiens, HT-29, read-out: Log10 GI50 (converted)) was 1.82 µM. The CC50 (HT29; Homo sapiens, read-out: LC50) was 67.6 µM, the GI50 (SF-268; Homo sapiens, SF-268) was 12.4 µM and the CC50 (SF-268; Homo sapiens, SF-268, read-out: LC50) was > 100 µM. The GI50 (SF-268; Homo sapiens, SF-268, read-out: Log10 GI50 (converted)) was 12.3 µM, the TGI (SF-268; SF-268) was 4.58E−5 Molar and the “Percent Growth” value (SF-268; SF-268, Log10 Concentration −4.0 Molar) was −30%. The “Percent Growth” value (SF-268; SF-268, Log10 Concentration −5.0 Molar) was 56%, the “Percent Growth” value (SF-268; SF-268, Log10 Concentration −6.0 Molar) was 94% and the “Percent Growth” value (SF-268; SF-268, Log10 Concentration −7.0 Molar) was 98%. The “Percent Growth” value (SF-268; SF-268, Log10 Concentration −8.0 Molar) was 106%, the GI50 (SNB-75; Homo sapiens, SNB-75) was 76.4 µM and the CC50 (SNB-75; Homo sapiens, SNB-75, read-out: LC50) was 62.8 µM. For the same compound, the GI50 (SNB-75; Homo sapiens, SNB-75, read-out: Log10 GI50 (converted)) was 7.59 µM, the TGI (SNB-75; SNB-75) was 2.31E−5 Molar and the “Percent Growth” value (SNB-75; SNB-75, Log10 Concentration −4.0 Molar) was −73%. The “Percent Growth” value (SNB-75; SNB-75, Log10 Concentration −5.0 Molar) was 42%, the “Percent Growth” value (SNB-75; SNB-75, Log10 Concentration −6.0 Molar) was 112% and the “Percent Growth” value (SNB-75; SNB-75, Log10 Concentration −7.0 Molar) was 119%. For the same compound, the “Percent Growth” value (SNB-75; SNB-75, Log10 Concentration −8.0 Molar) was 118%, the GI50 (SK-MEL-2; Homo sapiens, SK-MEL-2) was 1.58 µM and the CC50 (SK-MEL-2; Homo sapiens, SK-MEL-2, read-out: LC50) was 48.2 µM. For the same compound, the GI50 (SK-MEL-2; Homo sapiens, SK-MEL-2, read-out: Log10 GI50 (converted)) was 1.58 µM, the TGI (SK-MEL-2; SK-MEL-2) was 5.94E−6 Molar and the “Percent Growth” value (SK-MEL-2; SK-MEL-2, Log10 Concentration −4.0 Molar) was −64%. For the same compound, the “Percent Growth” value (SK-MEL-2; SK-MEL-2, Log10 Concentration −5.0 Molar) was −20%, the “Percent Growth” value (SK-MEL-2; SK-MEL-2, Log10 Concentration −6.0 Molar) was 67% and the “Percent Growth” value (SK-MEL-2; SK-MEL-2, Log10 Concentration −7.0 Molar) was 84%. For the same compound, the “Percent Growth” value (SK-MEL-2; SK-MEL-2, Log10 Concentration −8.0 Molar) was 98%, the GI50 (SK-MEL-5; Homo sapiens, SK-MEL-5) was 4.97 µM and the CC50 (SK-MEL-5; Homo sapiens, SK-MEL-5, read-out: LC50) was 45.5 µM. The GI50 (SK-MEL-5; Homo sapiens, SK-MEL-5, read-out: Log10 GI50 (converted)) was 5.01 µM, the TGI (SK-MEL-5; SK-MEL-5) was 1.95E−5 Molar and the “Percent Growth” value (SK-MEL-5; SK-MEL-5, Log10 Concentration −4.0 Molar) was −97%. For the same compound, the “Percent Growth” value (SK-MEL-5; SK-MEL-5, Log10 Concentration −5.0 Molar) was 40%, the “Percent Growth” value (SK-MEL-5; SK-MEL-5, Log10 Concentration −6.0 Molar) was 74% and the “Percent Growth” value (SK-MEL-5; SK-MEL-5, Log10 Concentration −7.0 Molar) was 92%. For the same compound, the “Percent Growth” value (SK-MEL-5; SK-MEL-5, Log10 Concentration −8.0 Molar) was 95%, the TGI (786-0; 786-0) was 2.19E−5 Molar and the “Percent Growth” value (786-0; 786-0, Log10 Concentration −4.0 (Molar)) was −52%. The “Percent Growth” value (786-0; 786-0, Log10 Concentration −5.0 (Molar)) was 27%, the “Percent Growth” value (786-0; 786-0, Log10 Concentration −6.0 (Molar)) was 76% and the “Percent Growth” value (786-0; 786-0, Log10 Concentration −7.0 (Molar)) was 88%. For the same compound, the “Percent Growth” value (786-0; 786-0, Log10 Concentration −8.0 (Molar)) was 99%, the GI50 (786-0; Homo sapiens, 786-0) was 34 µM and the CC50 (786-0; Homo sapiens, 786-0, read-out: LC50) was 94.7 µM. For the same compound, the GI50 (786-0; Homo sapiens, 786-0, read-out: Log10 GI50 (converted)) was 3.39 µM, the TGI (SN12C) was 1.94E−5 Molar and the GI50 (SN12C; Homo sapiens) was 3.56 µM. For the same compound, the CC50 (SN12C; Homo sapiens, read-out: LC50) was 87.2 µM, the GI50 (SN12C; Homo sapiens, read-out: Log10 GI50 (converted)) was 3.55 µM and the “Percent Growth” value (SN12C; Log10 Concentration −4.0 Molar) was −68%. For the same compound, the “Percent Growth” value (SN12C; Log10 Concentration −5.0 Molar) was 27%, the “Percent Growth” value (SN12C; Log10 Concentration −6.0 Molar) was 78% and the “Percent Growth” value (SN12C; Log10 Concentration −7.0 Molar) was 93%. For the same compound, the “Percent Growth” value (SN12C; Log10 Concentration −8.0 Molar) was 97%, the GI50 (RXF 393; Homo sapiens, RXF 393) was < 0.01 µM and the CC50 (RXF 393; Homo sapiens, RXF 393, read-out: LC50) was 23.2 µM. The GI50 (RXF 393; Homo sapiens, RXF 393, read-out: Log10 GI50 (converted)) was < 0.01 µM, the TGI (RXF 393; RXF 393) was 2.44E−7 Molar and the “Percent Growth” value (RXF 393; RXF 393, Log10 Concentration −4.0 Molar) was −85%. The “Percent Growth” value (RXF 393; RXF 393, Log10 Concentration −5.0 Molar) was −30%, the “Percent Growth” value (RXF 393; RXF 393, Log10 Concentration −6.0 Molar) was −12% and the “Percent Growth” value (RXF 393; RXF 393, Log10 Concentration −7.0 Molar) was 7%. For the same compound, the “Percent Growth” value (RXF 393; RXF 393, Log10 Concentration −8.0 Molar) was 31%, the TGI (COLO 205; COLO 205) was 1.58E−5 Molar and the “Percent Growth” value (COLO 205; COLO 205, Log10 Concentration −4.0 Molar) was −72%. For the same compound, the “Percent Growth” value (COLO 205; COLO 205, Log10 Concentration −5.0 Molar) was 18%, the “Percent Growth” value (COLO 205; COLO 205, Log10 Concentration −6.0 Molar) was 61% and the “Percent Growth” value (COLO 205; COLO 205, Log10 Concentration −7.0 Molar) was 93%. For the same compound, the “Percent Growth” value (COLO 205; COLO 205, Log10 Concentration −8.0 Molar) was 98%, the GI50 (COLO 205; Homo sapiens, COLO 205) was 1.05 µM and the CC50 (COLO 205; Homo sapiens, COLO 205, read-out: LC50) was 56.9 µM. For the same compound, the GI50 (COLO 205; Homo sapiens, COLO 205, read-out: Log10 GI50 (converted)) was 1.05 µM, the GI50 (OVCAR-5; Homo sapiens, OVCAR-5) was < 0.01 µM and the CC50 (OVCAR-5; Homo sapiens, OVCAR-5, read-out: LC50) was > 100 µM. The GI50 (OVCAR-5; Homo sapiens, OVCAR-5, read-out: Log10 GI50 (converted)) was < 0.01 µM, the TGI (OVCAR-5; OVCAR-5) was 3.72E−7 Molar and the “Percent Growth” value (OVCAR-5; OVCAR-5, Log10 Concentration −4.0 Molar) was −50%. The “Percent Growth” value (OVCAR-5; OVCAR-5, Log10 Concentration −5.0 Molar) was −23%, the “Percent Growth” value (OVCAR-5; OVCAR-5, Log10 Concentration −6.0 Molar) was −7% and the “Percent Growth” value (OVCAR-5; OVCAR-5, Log10 Concentration −7.0 Molar) was 10%. For the same compound, the “Percent Growth” value (OVCAR-5; OVCAR-5, Log10 Concentration −8.0 Molar) was 43%, the GI50 (MDA-MB-231/ATCC; Homo sapiens, MDA-MB-231) was 11 µM and the CC50 (MDA-MB-231/ATCC; Homo sapiens, MDA-MB-231, read-out: LC50) was > 100 µM. The GI50 (MDA-MB-231/ATCC; Homo sapiens, MDA-MB-231, read-out: Log10 GI50 (converted)) was 11 µM, the TGI (MDA-MB-231/ATCC; MDA-MB-231/ATCC) was 4.23E−5 Molar and the “Percent Growth” value (MDA-MB-231/ATCC; MDA-MB-231/ATCC, Log10 Concentration −4.0 Molar) was −32%. The “Percent Growth” value (MDA-MB-231/ATCC; MDA-MB-231/ATCC, Log10 Concentration −5.0 Molar) was 53%, the “Percent Growth” value (MDA-MB-231/ATCC; MDA-MB-231/ATCC, Log10 Concentration −6.0 Molar) was 109% and the “Percent Growth” value (MDA-MB-231/ATCC; MDA-MB-231/ATCC, Log10 Concentration −7.0 Molar) was 120%. For the same compound, the “Percent Growth” value (MDA-MB-231/ATCC; MDA-MB-231/ATCC, Log10 Concentration −8.0 Molar) was 105%, the TGI (HOP-62; HOP-62) was 1.93E−5 Molar and the “Percent Growth” value (HOP-62; HOP-62, Log10 Concentration −4.0 Molar) was −37%. For the same compound, the “Percent Growth” value (HOP-62; HOP-62, Log10 Concentration −5.0 Molar) was 15%, the “Percent Growth” value (HOP-62; HOP-62, Log10 Concentration −6.0 Molar) was 36% and the “Percent Growth” value (HOP-62; HOP-62, Log10 Concentration −7.0 Molar) was 07%. The “Percent Growth” value (HOP-62; HOP-62, Log10 Concentration −8.0 Molar) was 91%, the GI50 (HOP-62; Homo sapiens, HOP-62) was 0.3 µM and the CC50 (HOP-62; Homo sapiens, HOP-62, read-out: LC50) was > 100 µM. The GI50 (HOP-62; Homo sapiens, HOP-62, read-out: Log10 GI50 (converted)) was 0.363 µM.
